Test results published in patent publication US20250082595A1, “METHODS AND COMPOSITIONS FOR TREATING PARKINSON’S DISEASE” (priority 2022, published 2025).
Where “and” joins values, the source holds several entries; their conditions need not be identical. Equal entries are not always repeated.

Assays:
[1] = Plasma exposure (AUC) of LD and CD after SC infusion, oral IR tablet, and SC + oral coadministration of LD/CD; type: in vivo
Excerpt: A test was run in order to assess the plasma exposure of levodopa (LD) following the coadministration of LD and carbidopa (CD) in both subcutaneous (SC) and oral administrations. Accordingly, results obtained from a combined SC+oral administration were compared to results obtained from SC administration alone and from oral administration alone. An additive plasma exposure and PK profile was expected, i.e., it was expected that the SC+oral coadministration would provide results equal to the additive results of the SC and oral administrations, when each was administered separately.
16 healthy subjects (18-50 years) were treated in a crossover manner, i.e., sequentially, with a washout period of 6 days between the following two treatments: • Treatment A: A total dose of 180/22.5 mg LD/CD (formulation A) was administered by SC infusion over the course of 8 hours, at a steady infusion rate. • Treatment B: An immediate release (IR) tablet of 100/25 mg LD/CD was administered orally at time 0 h.
Following a 32 hour washout period, the same 16 healthy subjects were administered with LC/CD both orally and subcutaneously according to the following treatment: • Treatment C: A dose of 153.6/19.2 LD/CD (formulation A) was administered by SC infusion over the course of 8 hours, at a steady infusion rate, combined with a single co-administration of an oral IR LD/CD 100/25 mg tablet, 4 hours after the initiation of the infusion. Total LD/CD dose: 253.6/44.2 mg.
The normalized AUC0-8 of LD and CD of Treatment C, resulting from the combined SC and oral treatment, as described above, was calculated and compared to the sum of the normalized LD and CD AUCs obtained from Treatment A (AUC0-8 resulting from 8 h SC infusion) and Treatment B (AUC0-4 resulting from one IR oral tablet).

[2] = Description: The objective of this study was to determine the pharmacokinetics (PK) of levodopa (LD) in domestic pigs following continuous subcutaneous (SC) infusion of a levodopa prodrug, exemplified using LD-Tyr, administered concomitantly with oral Levodopa.
Table 6 provides the LD-Tyr formulation tested in this study: […]
The study consisted of 3 dosing sessions in which 5 female pigs (Swine/Landrace×large White, ˜40-50 kg each) were treated with the LD-Tyr solution of Table 6 and/or Sinemet JR oral tablets (CD/LD 25/100 mg tablet) in a cross-over design with up to 4-day washout period between dosing sessions, as detailed in the following tables:
As presented in Tables 7 and 8 above, the study included the following three test groups: • G1—received only SC LD-Tyr (600 mg total daily dose); • G2—received only oral LD (300 mg total daily dose); and • G3—received both SC LD-Tyr (600 mg total daily dose) and oral LD (200 mg total daily dose).
Blood samples for the determination of LD-Tyr (in groups 1 and 3), as well as LD and CD plasma levels (in all groups) were collected from the pigs at the following timepoints: • 0 (pre-dose), 30 min, 1 h, 2 h, 3 h, 4 h, 4.5 h, 5 h, 6 h, 7 h, 8 h, 8.5 h, 9 h, 10 h, 11 h, 13 h, 15 h 18 h following treatment initiation. Tablets were administered before blood collection (time 0, 4 and 8 h).
Plasma samples were analyzed for concentration of LD-Tyr (groups 1 and 3), as well as LD and CD (for all groups) using a qualified LC-MS/MS analytical method.
PK parameters (at least Cmax, tmax, t1/2, AUC) for LD-Tyr, LD and CD were calculated by noncompartmental methods using appropriate software (e.g. Phoenix® WinNonlin®). Individual and mean was calculated for quantitative parameters.
The LD exposure obtained from the SC infusion is considered to be the baseline.

[3] = geomean of group, Treatment A SC 8 h, normalized × 0.853
[4] = geomean of group, oral IR tablet 100/25 mg LD/CD

## C[C@@](Cc1ccc(O)c(O)c1)(NN)C(=O)O [CD, carbidopa]
[1]; geomean of group, SC + oral
  CD: 4. Treatment C AUC (0-8) [Observed], Geomean Group: 1051
[1]; [3]
  CD: 1. Treatment A AUC (0-8) × 0.853, Geomean Group: 900
[1]; [4]
  CD: 2. Treatment B AUC (0-4), Geomean Group: 309
[1]; human, in vivo
  CD: 3. Combined 1 + 2 [Estimated], Geomean Group: 1209
  CD: Observed (C) vs. Additive Ratio, Geomean Group (mean ratio): 0.869
  CD: Observed (C) vs. Additive Ratio, Geomean Individual: 0.866
[1]; individual subject (ID), SC 153.6/19.2 LD/CD over 8 h + oral IR LD/CD 100/25 mg tablet at 4 h
  CD: 4. Treatment C AUC (0-8) [Observed]: 1086
[1]; individual subject (ID), Treatment A: 180/22.5 mg LD/CD formulation A, SC infusion over 8 h, AUC × 0.853
  CD: 1. Treatment A AUC (0-8) × 0.853: 955 and 988 and 925
[1]; individual subject (ID), oral IR tablet 100/25 mg LD/CD at 0 h
  CD: 2. Treatment B AUC (0-4): 318

## N[C@@H](Cc1ccc(O)c(O)c1)C(=O)O [LD, L-3,4-dihydroxyphenylalanine]
[1]; geomean of group, SC 153.6/19.2 LD/CD over 8 h + oral 100/25 mg tablet at 4 h
  LD: 4. Treatment C AUC (0-8) [Observed], Geomean Group: 4817
[1]; [3]
  LD: 1. Treatment A AUC (0-8) × 0.853, Geomean Group: 2412
[1]; [4]
  LD: 2. Treatment B AUC (0-4), Geomean Group: 1458
[1]; geomean of group, sum A + B
  LD: 3. Combined 1 + 2 [Estimated], Geomean Group: 3870
[1]; geomean of individual ratios
  LD: Observed (C) vs. Additive Ratio, Geomean Individual: 1.240
[1]; group geomean, Treatment C vs. A+B
  LD: Observed (C) vs. Additive Ratio, Geomean Group (mean ratio): 1.245
[1]; individual subject (ID), Treatment A: 180/22.5 mg LD/CD formulation A, SC infusion over 8 h, AUC × 0.853 to equal SC dose of Treatment C
  LD: 1. Treatment A AUC (0-8) × 0.853: 2236 and 2266 and 2218
[1]; individual subject (ID), Treatment C: 153.6/19.2 LD/CD formulation A SC over 8 h + oral IR LD/CD 100/25 mg tablet at 4 h
  LD: 4. Treatment C AUC (0-8) [Observed]: 6325 and 5031 and 5059 and 4610 and 3961
[1]; individual subject (ID), sum of normalized Treatment A AUC and Treatment B AUC
  LD: 3. Combined 1 + 2 [Estimated]: 3087
[2]; animal 115 excluded
  Synergism ratio, Mean: 1.57
  Synergism ratio, Median: 1.49
[2]; individual pig
  Synergism ratio (actual / predicted LD AUC of oral add-ons): above 1
[2]; pigs, SC LD-Tyr/CD + oral LD/CD
  Increase of LD plasma exposure by oral add-ons, on top of LD exposure from SC administration alone, versus predicted (average): over 50%
